Assay results published in patent US12258344B2, “Azaaromatic amide derivatives for the treatment of cancer” (SHENZHEN FORWARD PHARMACEUTICALS CO., LTD., priority 2019, dated 2025).

Key:
[1] = tested on: NCI-H1975 (EGFR L858R/T790M double mutant); assay: Test 1: EGFR L858R/T790M (EGFR double mutant) cell proliferation test; format: cell-based; settings: Homo sapiens; NCI-H1975 cells, 72 hours, Cell Titer-Glo
BaF3 (EGFR-D770insSVD) = BaF3 (EGFR-D770insSVD) (Homo sapiens, UniProt P00533, DUP768-770, cells depend on it); assay: Test 2: BaF3 (EGFR-D770insSVD) cell proliferation test; format: cell-based; settings: 72 hours, Cell Titer-Glo, read-out: Test 2 - IC50
Procedure: Test 2: BaF3 (EGFR-D770insSVD) Cell Proliferation Test
BaF3 (EGFR-D770insSVD) was cultured in RPMI1640 medium containing 10% fetal bovine serum and 2 mM glutamine. The cells were grown at 37° C. in a humidified incubator with 5% CO2.
(§1) The number of viable cells in the culture was measured according to the protocol described in Promega's Cell Titer-Glo Luminescent cell Viability Assay (Promega catalog number #G7570). 90 μl of cells (3,000 cells/well) were cultured in growth medium in a Corning black transparent bottom 96-well plate, and cultured in a 5% CO2 humidified incubator at 37° C. overnight. The compound serially diluted in 100% DMSO was added to the cells using a pipette, and the cells were incubated for another 72 hours. 100 μl of the mixed Cell Titer-Glo reagent was added to the cells in the 96-well culture plate to lyse the cells and mix gently. Subsequently, the […] was detected on the Envision microplate detector to obtain the data of each compound. Finally, the data was input into a suitable software package (such as Prism) for curve fitting analysis.

BaF3 (EGFR-V769insASV) = BaF3 (EGFR-V769insASV) (Homo sapiens, UniProt P00533, DUP767-769, cells depend on it); assay: Test 4: BaF3 (EGFR-V769insASV) cell proliferation test; format: cell-based; settings: 72 hours, Cell Titer-Glo, read-out: Test 4 - IC50
Procedure: Test 4: BaF3 (EGFR-V769insASV) Cell Proliferation Test
BaF3 (EGFR-V769insASV) was cultured in RPMI1640 medium containing 10% fetal bovine serum and 2 mM glutamine. The cells were grown at 37° C. in a humidified incubator with 5% CO2.
as §1

BaF3 (EGFR-N771insH) = BaF3 (EGFR-N771insH) (Homo sapiens, UniProt P00533, INS771H, cells depend on it); assay: Test 5: BaF3 (EGFR-N771insH) cell proliferation test; format: cell-based; settings: 72 hours, Cell Titer-Glo, read-out: Test 5 - IC50
Procedure: Test 5: BaF3 (EGFR-N771insH) Cell Proliferation Test
BaF3 (EGFR-N771insH) was cultured in RPMI1640 medium containing 10% fetal bovine serum and 2 mM glutamine. The cells were grown at 37° C. in a humidified incubator with 5% CO2.
as §1

BaF3 (EGFR-D770insNPG) = BaF3 (EGFR-D770insNPG) (Homo sapiens, UniProt P00533, INS772GNP, cells depend on it); assay: Test 6: BaF3 (EGFR-D770insNPG) cell proliferation test; format: cell-based; settings: 72 hours, Cell Titer-Glo, read-out: Test 6 - IC50
Procedure: Test 6: BaF3 (EGFR-D770insNPG) Cell Proliferation Test
BaF3 (EGFR-D770insNPG) was cultured in RPMI1640 medium containing 10% fetal bovine serum and 2 mM glutamine. The cells were grown at 37° C. in a humidified incubator with 5% CO2.
as §1

BaF3 (EGFR-L861Q) = BaF3 (EGFR-L861Q) (Homo sapiens, UniProt P00533, L861Q, cells depend on it); assay: Test 8: BaF3 (EGFR-L861Q) cell proliferation test; format: cell-based; settings: 72 hours, Cell Titer-Glo, read-out: Test 8 - IC50
Procedure: Test 8: BaF3 (EGFR-L8610) Cell Proliferation Test
BaF3 (EGFR-L861Q) was cultured in RPMI1640 medium containing 10% fetal bovine serum and 2 mM glutamine. The cells were grown at 37° C. in a humidified incubator with 5% CO2.
as §1

BaF3 (HER2-G776insVC) = BaF3 (HER2-G776insVC) (Homo sapiens, UniProt P04626, cells depend on it, form not given); assay: Test 11: BaF3 (HER2-G776insVC) cell proliferation test; format: cell-based; settings: 72 hours, Cell Titer-Glo, read-out: Test 11 - IC50
Procedure: Test 11: BaF3 (HER2-G776insVC) Cell Proliferation Test
The engineered cell line BaF3 (HER2-G776insVC) was constructed by the inventor himself (for the method of cell line construction, see Jingrui Jiang et al., Cancer Res. 2005 Oct. 1; 65 (19): 8964-74; Jacqulyne P. Robichaux et al., Nat Med. 2018 May; 24 (5): 638-646). BaF3 (HER2-G776insVC) was cultured in RPMI1640 medium containing 10% fetal bovine serum and 2 mM glutamine. The cells were grown at 37° C. in a humidified incubator with 5% CO2.
as §1

HER4 kinase = target: T1, HER4 kinase (Homo sapiens, UniProt Q15303); assay: Test 12: HER4 kinase screening test; format: binding; settings: for inhibition at 1 µM: compound concentration 1 μM, read-out: 1 μM Inhibition rate (%); for inhibition at 10 µM: compound concentration 10 μM, read-out: 10 μM Inhibition rate (%)
T1 construct: made in house
Procedure: Test 12: HER4 Kinase Screening Test
Most kinase activity tests were carried out by T7 phage expressing kinase expressed in E. coli system. After E. coli grew to the logarithmic phase, E. coli was infected with T7 bacteriophage (moi=0.4) and cultured with shaking at 32° C. until lysis (90-150 minutes). The lysate was filtered with a centrifuge (6,000 g) and filtration membrane (0.2 μm) to remove cell debris. Other individual kinases to be tested were expressed by HEK-293 cells and labeled with DNA for qPCR detection.
Next, the ligand magnetic beads were blocked with excess biotin and washed with blocking buffer (SeaBlock (Pierce), 1% BSA, 0.05% Tween-20, 1 mm DTT) to remove unbound ligand and reduce non-specific binding of phages. […] 100% DMSO was used to prepare the test compound at a concentration of 40×, which was directly diluted into the reaction system. All reactions were carried out on a polypropylene 384-well plate, and the final volume of the reaction system was 0.02 ml.

BaF3 (EGFR-N771insH), sequence (P00533 with tags, fused parts or gaps INS771H): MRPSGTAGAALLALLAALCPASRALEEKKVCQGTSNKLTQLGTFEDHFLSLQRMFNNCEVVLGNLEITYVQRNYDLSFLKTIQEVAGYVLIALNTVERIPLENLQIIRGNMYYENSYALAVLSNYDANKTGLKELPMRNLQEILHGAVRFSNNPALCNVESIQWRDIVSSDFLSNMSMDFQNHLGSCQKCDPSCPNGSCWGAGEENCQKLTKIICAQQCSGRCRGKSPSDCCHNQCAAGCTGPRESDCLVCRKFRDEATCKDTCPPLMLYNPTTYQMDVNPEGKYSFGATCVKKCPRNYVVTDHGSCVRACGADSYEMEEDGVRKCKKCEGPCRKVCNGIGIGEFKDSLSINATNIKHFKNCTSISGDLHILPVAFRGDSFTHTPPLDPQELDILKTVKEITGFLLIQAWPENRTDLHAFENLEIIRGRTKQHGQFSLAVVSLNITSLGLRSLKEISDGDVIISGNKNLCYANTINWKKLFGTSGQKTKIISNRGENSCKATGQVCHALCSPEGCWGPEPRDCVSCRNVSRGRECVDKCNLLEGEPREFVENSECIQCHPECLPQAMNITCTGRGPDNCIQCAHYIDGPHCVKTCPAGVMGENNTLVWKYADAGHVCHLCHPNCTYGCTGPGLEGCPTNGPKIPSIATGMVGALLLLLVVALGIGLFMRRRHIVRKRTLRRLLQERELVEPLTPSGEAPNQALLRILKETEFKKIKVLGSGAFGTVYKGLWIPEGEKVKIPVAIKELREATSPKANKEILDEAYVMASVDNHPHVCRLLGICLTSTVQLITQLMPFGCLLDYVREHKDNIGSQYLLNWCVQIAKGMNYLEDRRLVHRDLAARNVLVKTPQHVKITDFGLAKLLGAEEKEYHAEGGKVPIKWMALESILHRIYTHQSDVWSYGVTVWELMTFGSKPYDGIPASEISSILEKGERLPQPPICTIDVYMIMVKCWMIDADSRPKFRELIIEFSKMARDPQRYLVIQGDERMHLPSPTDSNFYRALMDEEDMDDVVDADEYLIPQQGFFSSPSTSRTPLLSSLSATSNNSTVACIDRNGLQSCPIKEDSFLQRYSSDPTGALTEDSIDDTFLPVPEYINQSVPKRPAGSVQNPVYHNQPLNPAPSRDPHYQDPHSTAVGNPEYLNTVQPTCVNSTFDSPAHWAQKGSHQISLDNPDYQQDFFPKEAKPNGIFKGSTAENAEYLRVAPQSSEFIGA
BaF3 (EGFR-D770insSVD), sequence (P00533 with tags, fused parts or gaps DUP768-770): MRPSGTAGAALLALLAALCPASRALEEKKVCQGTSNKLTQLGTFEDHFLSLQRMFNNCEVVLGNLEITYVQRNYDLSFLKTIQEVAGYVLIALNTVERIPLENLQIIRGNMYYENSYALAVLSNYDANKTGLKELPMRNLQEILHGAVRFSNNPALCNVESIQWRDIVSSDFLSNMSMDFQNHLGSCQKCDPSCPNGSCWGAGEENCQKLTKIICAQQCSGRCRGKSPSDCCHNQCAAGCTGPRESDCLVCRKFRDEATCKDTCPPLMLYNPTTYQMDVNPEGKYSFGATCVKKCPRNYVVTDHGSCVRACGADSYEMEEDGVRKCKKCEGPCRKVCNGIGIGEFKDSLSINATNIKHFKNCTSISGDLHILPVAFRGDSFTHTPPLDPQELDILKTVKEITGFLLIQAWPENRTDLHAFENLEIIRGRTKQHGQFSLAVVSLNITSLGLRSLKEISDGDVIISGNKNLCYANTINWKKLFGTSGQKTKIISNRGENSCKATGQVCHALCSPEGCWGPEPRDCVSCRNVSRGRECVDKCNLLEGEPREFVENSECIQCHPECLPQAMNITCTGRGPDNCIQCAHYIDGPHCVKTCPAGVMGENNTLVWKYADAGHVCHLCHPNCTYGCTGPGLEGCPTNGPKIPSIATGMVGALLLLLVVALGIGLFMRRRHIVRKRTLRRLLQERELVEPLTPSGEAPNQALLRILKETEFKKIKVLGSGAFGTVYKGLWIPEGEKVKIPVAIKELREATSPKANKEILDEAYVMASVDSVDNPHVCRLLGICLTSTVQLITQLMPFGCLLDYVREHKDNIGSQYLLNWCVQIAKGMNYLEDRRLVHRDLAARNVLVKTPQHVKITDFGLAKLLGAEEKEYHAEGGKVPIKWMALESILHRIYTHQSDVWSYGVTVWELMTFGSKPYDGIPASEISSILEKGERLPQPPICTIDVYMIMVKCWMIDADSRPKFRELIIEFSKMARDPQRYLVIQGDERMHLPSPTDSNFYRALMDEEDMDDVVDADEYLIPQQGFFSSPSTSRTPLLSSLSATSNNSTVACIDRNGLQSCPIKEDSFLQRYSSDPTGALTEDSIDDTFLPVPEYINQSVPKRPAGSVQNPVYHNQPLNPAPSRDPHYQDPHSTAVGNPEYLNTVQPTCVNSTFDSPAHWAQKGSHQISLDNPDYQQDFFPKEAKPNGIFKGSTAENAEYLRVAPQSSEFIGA
T1 sequence (Q15303 26-1308): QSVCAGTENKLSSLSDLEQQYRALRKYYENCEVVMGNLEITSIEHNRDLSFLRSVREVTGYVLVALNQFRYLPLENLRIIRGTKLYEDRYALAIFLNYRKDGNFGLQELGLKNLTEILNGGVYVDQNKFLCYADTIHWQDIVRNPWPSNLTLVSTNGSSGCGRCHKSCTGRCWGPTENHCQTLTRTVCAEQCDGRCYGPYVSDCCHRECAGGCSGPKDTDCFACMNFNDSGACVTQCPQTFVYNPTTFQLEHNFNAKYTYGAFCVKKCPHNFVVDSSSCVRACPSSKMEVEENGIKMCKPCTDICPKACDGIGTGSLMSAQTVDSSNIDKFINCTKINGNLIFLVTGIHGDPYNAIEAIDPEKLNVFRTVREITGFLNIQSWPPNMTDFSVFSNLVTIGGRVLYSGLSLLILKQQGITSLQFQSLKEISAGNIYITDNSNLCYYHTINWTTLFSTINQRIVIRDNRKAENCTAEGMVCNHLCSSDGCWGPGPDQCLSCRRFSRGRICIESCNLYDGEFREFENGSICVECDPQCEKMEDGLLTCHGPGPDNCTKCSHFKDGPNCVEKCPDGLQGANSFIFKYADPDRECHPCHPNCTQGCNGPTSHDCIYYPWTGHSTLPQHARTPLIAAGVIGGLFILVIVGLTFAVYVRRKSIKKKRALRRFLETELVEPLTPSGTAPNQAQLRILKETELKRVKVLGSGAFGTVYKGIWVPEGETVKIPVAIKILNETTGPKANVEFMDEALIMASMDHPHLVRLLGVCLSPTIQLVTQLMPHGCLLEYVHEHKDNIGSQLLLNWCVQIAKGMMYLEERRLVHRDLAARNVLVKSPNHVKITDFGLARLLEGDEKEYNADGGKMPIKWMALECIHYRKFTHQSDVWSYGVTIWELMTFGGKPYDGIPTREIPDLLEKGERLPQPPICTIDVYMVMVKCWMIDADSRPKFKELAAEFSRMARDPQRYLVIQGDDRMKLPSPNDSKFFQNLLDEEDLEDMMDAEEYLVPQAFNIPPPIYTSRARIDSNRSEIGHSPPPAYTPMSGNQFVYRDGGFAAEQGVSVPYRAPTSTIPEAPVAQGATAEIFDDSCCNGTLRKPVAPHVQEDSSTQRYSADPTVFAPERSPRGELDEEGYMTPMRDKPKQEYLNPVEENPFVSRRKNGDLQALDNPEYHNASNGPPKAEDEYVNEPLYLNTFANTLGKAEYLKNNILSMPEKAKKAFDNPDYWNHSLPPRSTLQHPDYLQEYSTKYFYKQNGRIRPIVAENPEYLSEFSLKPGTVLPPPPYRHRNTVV
BaF3 (EGFR-L861Q), sequence (P00533 whole entry L861Q): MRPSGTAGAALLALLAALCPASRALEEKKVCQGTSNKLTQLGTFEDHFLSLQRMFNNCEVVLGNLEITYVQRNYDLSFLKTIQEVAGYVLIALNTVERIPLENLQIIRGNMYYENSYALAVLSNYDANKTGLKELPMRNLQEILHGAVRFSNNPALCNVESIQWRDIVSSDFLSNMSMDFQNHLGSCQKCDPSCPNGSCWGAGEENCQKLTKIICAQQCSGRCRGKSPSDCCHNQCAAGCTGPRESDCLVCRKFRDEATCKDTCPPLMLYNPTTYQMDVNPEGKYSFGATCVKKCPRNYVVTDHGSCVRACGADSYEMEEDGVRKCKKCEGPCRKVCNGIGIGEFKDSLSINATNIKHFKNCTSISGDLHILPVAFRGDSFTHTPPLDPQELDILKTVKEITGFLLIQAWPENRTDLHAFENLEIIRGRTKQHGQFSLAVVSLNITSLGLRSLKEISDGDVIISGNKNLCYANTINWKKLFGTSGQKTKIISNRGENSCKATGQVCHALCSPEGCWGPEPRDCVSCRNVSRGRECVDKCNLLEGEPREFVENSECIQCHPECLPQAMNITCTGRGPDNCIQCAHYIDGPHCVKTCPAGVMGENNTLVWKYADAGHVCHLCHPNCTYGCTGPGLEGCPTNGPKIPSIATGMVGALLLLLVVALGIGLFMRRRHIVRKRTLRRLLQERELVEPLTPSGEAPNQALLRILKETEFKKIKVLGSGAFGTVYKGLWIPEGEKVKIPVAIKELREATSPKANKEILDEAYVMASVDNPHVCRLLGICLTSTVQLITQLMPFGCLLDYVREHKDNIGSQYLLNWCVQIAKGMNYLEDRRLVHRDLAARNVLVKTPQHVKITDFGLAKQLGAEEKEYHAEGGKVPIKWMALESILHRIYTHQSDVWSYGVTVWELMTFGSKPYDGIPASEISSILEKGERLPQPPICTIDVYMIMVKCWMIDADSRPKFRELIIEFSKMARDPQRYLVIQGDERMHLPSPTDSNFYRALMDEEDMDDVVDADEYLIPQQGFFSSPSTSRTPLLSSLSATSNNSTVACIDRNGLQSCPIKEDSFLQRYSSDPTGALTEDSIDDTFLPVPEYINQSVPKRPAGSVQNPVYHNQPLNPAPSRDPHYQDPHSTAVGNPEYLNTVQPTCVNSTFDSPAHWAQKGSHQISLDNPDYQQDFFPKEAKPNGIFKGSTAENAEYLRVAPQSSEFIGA

In the case of `C=CC(=O)Nc1cc(Nc2ncnc(-c3cn(C)c4ccc(F)cc34)n2)c(OC)cc1N(C)CCN(C)C` [Example 11], the IC50 [1] is reported as 0.0135 µM, the GI50 (BaF3 (EGFR-D770insSVD)) is reported as 0.0223 µM and the GI50 (BaF3 (EGFR-V769insASV)) is reported as 0.0479 µM. It also gave a GI50 (BaF3 (EGFR-N771insH)) of 0.00919 µM, a GI50 (BaF3 (EGFR-D770insNPG)) of 0.0102 µM and a GI50 (BaF3 (EGFR-L861Q)) of 0.0225 µM. For the same molecule, the GI50 (BaF3 (HER2-G776insVC)) was 0.00107 µM, the inhibition at 1 µM (HER4 kinase) was > 95% and the inhibition at 10 µM (HER4 kinase) was > 95%.

`C=CC(=O)Nc1cc(Nc2ncnc(-c3cn(C)c4ccc(F)cc34)n2)c(OC(F)F)cc1N(C)CCN(C)C` [Example 14, N-(4-(difluoromethoxy)-2-((2-(dimethylamino)ethyl)(methyl)amino)-5-((4-(5-fluoro-1-methyl-1H-indol-3-yl)-1,3,5-triazin-2-yl)amino)phenyl)acrylamide] showed an IC50 [1] of 0.0168 µM, a GI50 (BaF3 (EGFR-D770insSVD)) of 0.0164 µM and a GI50 (BaF3 (EGFR-V769insASV)) of 0.0259 µM. It also gave a GI50 (BaF3 (EGFR-N771insH)) of 0.00921 µM, a GI50 (BaF3 (EGFR-D770insNPG)) of 0.01 µM and a GI50 (BaF3 (EGFR-L861Q)) of 0.00458 µM. The GI50 (BaF3 (HER2-G776insVC)) was 0.00195 µM, the inhibition at 1 µM (HER4 kinase) was > 98% and the inhibition at 10 µM (HER4 kinase) was > 98%.

For `C=CC(=O)Nc1cc(Nc2ncnc(-c3cn(C)c4ccc(F)cc34)n2)c(OCC(F)(F)F)cc1N(C)CCN(C)C` [Example 15, N-(2-((2-(dimethylamino)ethyl)(methyl)amino)-5-((4-(5-fluoro-1-methyl-1H-indol-3-yl)-1,3,5-triazin-2-yl)amino)-4-(2,2,2-trifluoroethoxy)phenyl)acrylamide], the IC50 [1] was 0.0127 µM, the GI50 (BaF3 (EGFR-D770insSVD)) was 0.0244 µM and the GI50 (BaF3 (EGFR-V769insASV)) was 0.045 µM. It also gave a GI50 (BaF3 (EGFR-N771insH)) of 0.00766 µM, a GI50 (BaF3 (EGFR-D770insNPG)) of 0.00887 µM and a GI50 (BaF3 (EGFR-L861Q)) of 0.00387 µM. The GI50 (BaF3 (HER2-G776insVC)) was 0.00183 µM, the inhibition at 1 µM (HER4 kinase) was > 98% and the inhibition at 10 µM (HER4 kinase) was > 98%.
